Measured values as given in patent EP0164478A2, “Citric-acid salt of (-)vinburnine and process for its preparation” (COVEX (S.A.), priority 1984, dated 1985).
Structures can show the parent of a compound that is named as a salt.

Tests used:
[1] = tested on: consommation cérébrale du C14-desoxyglucose; assay: Cerebral consumption of C14-labelled deoxyglucose in dogs (Fig. 1); format: in vivo, chiens; details: 1 à 4 Mg/kg, C14-deoxyglucose given orally, compared with untreated animal and with vinburnine (Fig. 1)
Excerpt: (§1) L'invention sera mieux comprise à la lecture du complément de description qui suit se référant aux dessins annexés dans lesquels: • - La Fig.l est une illustration graphique de l'augmentation de consommation cérébrale de desoxyglucose chez un animal traité avec le citrate de vinburnine • - La Fig.2, est une illustration graphique de l'augmentation de la dissociation de l'oxyhémoglobine chez un animal traité avec le citrate de vinburnine. Dans l'étude sur l'augmentation de la consommation du glucose, on a utilisé des doses de 1 à 4 Mg/kg de citrate de vinburnine chez des chiens auxquels on administre du deoxyglucose marqué au C14, par voie orale.
(§2) Cette différence observée dans l'importance de la dissociation de l'oxyhémoglobine par la vinburnine et le citrate de vinburnine est illustrée sur le graphique de la Fig.2.

[2] = DL50 in the dog, intravenous administration; format: in vivo, chien; details: i.v.; for DL50: relative to vinburnine = 1,0 (arbitrary)
Excerpt: Les propriétés pharmacologiques du citrate de vinburnine ont été utlisées en thérapie avec de bons résultats.

oxyhémoglobine = assay: Dissociation of oxyhaemoglobin in anaesthetised dogs (Fig. 2); format: in vivo, chiens; details: 5mg/kg (Fig. 2)
Excerpt: as §1, §2

Solubility in water = format: physicochemical; details: water / aqueous solution
[3] = tested on: circulation cérébrale (artère carotide interne); assay: Cerebral circulation (internal carotid artery) and vascular resistance after intravenous and intra-arterial administration in dogs; format: in vivo, chiens; details: relative to vinburnine = 1,0 (arbitrary); for CERVEAU Diminution résistance vasculaire i.v. / CERVEAU augmentation circulation i.v.: 1 à 4 mg/kg, 4 mg/kg
Procedure: D'autre part, on a réalisé une étude spr la pression sanguine et la circulation cérébrale en administrant des doses intraveineuses de 1 à 4 mg/kg d'animal.
Dans l'étude de l'effet de ce composé, on a enregistré et calculé la circulation cérébrale (artère carotide interne) et la résistance vasculaire lors de l'administration des composés par voie intraveineuse et intraartérielle chez des chiens. Les valeurs données dans le tableau suivant sont rapportés à la valeur de 1,0 donnée arbitrairement à la vinburnine.

SMILES | consommation cérébrale du C14-desoxyglucose [1] | valeurs de DL50 ([2]; in words, compared with vinburnine base) | DL50 [2] | dissociation de l'oxyhémoglobine (oxyhémoglobine) | solubilité dans l'eau (Solubility in water) | CERVEAU Diminution résistance vasculaire i.a. [3] | CERVEAU augmentation circulation i.a. [3] | CERVEAU Diminution résistance vasculaire i.v. [3] | CERVEAU augmentation circulation i.v. [3]
CC[C@]12CCCN3CCc4c(n(c5ccccc45)C(=O)C1)[C@@H]32 [citrate de vinburnine, citrate de (-) vinburnine] | consommation du glucose plus importante | sensiblement inférieures à celles correspondant à la vinburnine sous forme de base | 1,2 | augmentation dans la dissociation de l'oxyhémoglobine | soluble en solution aqueuse | 0,6 | 0,8 | 0,8 | 0,9
CC[C@]12CCCN3CCc4c(n(c5ccccc45)C(=O)C1)[C@@H]32 [vinburnine] | augmentation de la consommation cérébrale du C14-desoxyglucose |  | 1,0 |  | insoluble dans l'eau | 1,0 | 1,0 | 1,0 | 1,0
